In patent publication EP4039094A1, “NOVEL ANTIFUNGAL COMPOUNDS” (Max-Planck-Gesellschaft zur Förderung der Wissenschaften …, priority 2021, dated 2022):

Test system: U. fabae
Assay: Uromyces fabae - Vicia faba leaf infection, pustule formation versus DMSO leaflet
Format: in vivo
Method: The Uromyces fabae - Vicia faba system was established by initially obtaining spores as well as broad bean seeds from the Institut für Phytomedizin at Hohenheim University, Germany. Briefly, Vicia faba plants (Bingenheimer Saatgut Frühe Weißkeimige, G142) were propagated in soil up to about the 4 leaf stage (2-3 plants per pot). Plants were transferred to a chamber lined with wet paper. 100 mg U. fabae spores were mixed with 160 mg skimmed milk powder in 200 ml sterile H2O. Tween 20 was added to a final concentration of 0.01 % and the mixture was stirred in the dark for 45 min. Leaves were sprayed with the suspension on both the upper and lower side and afterwards the entire compartment was fogged with H2O before closure and kept in the dark for 20 h. Plants were then gradually allowed to dry and were placed in a growth chamber under a light regime of 16 h light (24°C) and 8 h (20°C) dark until symptoms developed (10-12 days). Plants were tossed and spores were collected on underlying aluminum foil, and aliquots were frozen at -80°C.
For the infection with compounds added, 10 mg of U. fabae spores were mixed with 16 mg skimmed milk powder in 20 ml sterile H2O. Tween 20 was added to a final concentration of 0.01 % and the mixture was stirred in the dark for 45 min. Compounds were diluted to the desired concentration into in the spore suspension. The controls received the same amount of DMSO. Per bean plant, one pinnate leaf with two leaflets was selected and one of the leaflets was infected with spores + compound and the other with spores + DMSO, respectively. To this end leaves were lightly sprayed with H2O and the 100µl spore solution containing the compound or DMSO respectively was applied on the upper part of the using a small painting brush. Afterwards the plants were placed in a chamber lined with wet paper, fogged with H2O before closure and kept in the dark for 20 h. Plants were then gradually allowed to dry and were placed in a growth chamber under a light regime of 16 h light (24°C) and 8 h (20°C) dark until symptoms developed. The symptoms were quantified by using a previously described method (Sillero and Rubiales, 2002) with minor modifications. Comparisons of pustule formation were done as follow: leaf treated with spores plus DMSO (control) versus leaf treated with spores plus compound in DMSO (test). A single bifurcated leaf was used for this assay, and one half received the control and the other half receive spores with compound. Then it was determined whether pustule formation occurs or is inhibited. Leaves were scored for the development of brownish-red pustules. Only when brownish-red pustules containing powdery spores (urediniospores) appeared on the control leaf an infection was counted as valid. All compounds were tested in three biological replicates. Pictures were taken at 12-14 days post infection.

[1] = 0.5 mM final concentration in the inoculum
[2] = 1 mM final concentration in the inoculum of Vicia faba

Compound | virulence inhibition of U. fabae (pustule formation) [1] | virulence inhibition of U. fabae (pustule formation) [2] | virulence inhibition of U. fabae (pustule formation) (0.1 mM final concentration) | inhibitory activity on U. fabae virulence (Figure 6, concentration not given)
Cc1ccc(-c2c(-c3ccc(C)cc3)[n+]([O-])c3ccccn23)cc1 [Compound 1-A] | developed symptoms | able to inhibit pustule formation | – | –
CC(C)n1ncc2cc(NS(=O)(=O)c3cc(F)ccc3F)cnc21 [Compound 1-B] | – | completely inhibited | – | –
Cc1ccc(CSc2nc(=O)n(C3CCCC3)c3c2CCC3)cc1 [Compound 1-C] | inhibited pustule formation | inhibited pustule formation | inhibited pustule formation | strong inhibitory activity
O=[N+]([O-])c1ccc(-c2c(-c3ccccc3)n3ccccc3[n+]2[O-])cc1 [Compound 3-A] | developed symptoms | able to inhibit pustule formation | – | –
[O-][n+]1c(-c2ccc(C(F)(F)F)cc2)c(-c2ccc(C(F)(F)F)cc2)n2ccccc21 [Compound 2-A] | fully inhibit pustule formation | able to inhibit pustule formation | – | –
